According to article PMC10541190 (The Journal of Clinical Investigation, 2023):
“And” between values parts separate entries of the source, which are not always exact repeats. Equal values may be shown once.

How the values were obtained:
[1] = system: IL-2, IL-12p70, IL-13, IL-6, IFN-γ, IL-10; assay type: cell-based, human
MAP2K5 = details: cited from earlier work
RIPK2 = details: cited from earlier work
VEEV (TrD) = experiment: microbe, parasite or virus in culture; assay type: cell-based; details: Venezuelan equine encephalitis virus, U-87 MG, read-out: EC50, VEEV (TrD) infection
[2] = mouse, in vivo
EBOV (Kikwit isolate) = experiment: microbe, parasite or virus in culture; assay type: cell-based; details: Zaire ebolavirus, Huh-7, read-out: EC50, EBOV replication
VEEV (TC-83) = details: mouse, in vivo
[3] = system: SARS-CoV-2 (USA-WA1/2020); experiment: microbe, parasite or virus in culture; assay type: cell-based; details: Severe acute respiratory syndrome coronavirus 2, read-out: EC50, nucleocapsid transcript expression by RT-qPCR
SLK = details: cited from earlier work

In the case of `CS(=O)(=O)CCNCc1ccc(-c2ccc3ncnc(Nc4ccc(OCc5cccc(F)c5)c(Cl)c4)c3c2)o1` [Lapatinib], the IFN-γ concentration [1] is reported as 26.79 pg/mL and 38.39 pg/mL, the IL-1β concentration [1] is reported as 11.89 pg/mL and 16.34 pg/mL and the IL-2 concentration [1] is reported as 11.13 pg/mL and 12.03 pg/mL. The IL-4 concentration [1] was 7.10 pg/mL and 9.18 pg/mL, the IL-6 concentration [1] was 1072.19 pg/mL and 1729.84 pg/mL and the IL-8 concentration [1] was 2235.87 pg/mL and 2263.16 pg/mL. The IL-10 concentration [1] was 8.47 pg/mL and 10.43 pg/mL, the IL-12p70 concentration [1] was 18.48 pg/mL and 18.83 pg/mL and the IL-13 concentration [1] was 9.88 pg/mL and 8.83 pg/mL. For the same compound, the TNF-α concentration [1] was 22.84 pg/mL and 21.83 pg/mL, the “production of IL-2, IL-12p70, IL-13 and IL-6” value [1] was “reduced the production” and the “Other targets: MAP2K5 (% of control)” value (MAP2K5) was “RAF1 (0%), STK10 (1.4%), RIPK2 (6.1%), MAP2K5 (12%), SLK (18%)”. The “Other targets: RIPK2 (% of control)” value (RIPK2) was “RAF1 (0%), STK10 (1.4%), RIPK2 (6.1%), MAP2K5 (12%), SLK (18%)”, the EC50 (VEEV (TrD)) was 900 nM and the tolerability [2] was “good tolerability”. The EC50 (EBOV (Kikwit isolate)) was 2500 nM, the mice protected (VEEV (TC-83)) was 60% and the “mice protected by day 10” value (VEEV (TC-83)) was 80%. For the same compound, the “mice protected by day 14” value (VEEV (TC-83)) was 40%, the “toxicity of the dose in the VEEV model” value (VEEV (TC-83)) was “nontoxic” and the EC50 [3] was under 200 nM. The “Other targets: SLK (% of control)” value (SLK) was “RAF1 (0%), STK10 (1.4%), RIPK2 (6.1%), MAP2K5 (12%), SLK (18%)”.
